Each block holds one molecule with its values, some of them ahead of it.
Columns and labels:
[1] = test system: mouse embryonic fibroblasts (MEFs); assay: OSKM reprogramming of MEFs with drug treatment, alkaline phosphatase (AP) staining / sensitivity score; assay type: cell-based
Experimental: For infection, P1 mouse embryonic fibroblasts (MEFs) were thawed and plated at 1×10^6 cells per 10 cm dish on the previous day. Infection proceeded in two rounds with 8 h to 9 h in between. Briefly, cells were incubated with an OSKM/rtta virus mix (1:1), supplemented with 8 ug/ml protamine sulfate (Fisher Scientific #0219472905). The infection mix was removed on the following day and cells were left to recover in fresh MEF media (DMEM HG Thermo Fisher Scientific #10569010 with 10% FBS Atlanta Biologicals #S11150, Glutamax Thermo Fisher Scientific #35050079 and PenStrep Thermo Fisher Scientific 15140163).
Two days after infection, cells were re-plated for transduction efficiency assessment on day 3, molecular analyses on day 5, colony picking on day 16 and alkaline phosphatase (AP) staining on day 20. In each experiment, infected fibroblasts from the different genotypes were replated at multiple densities to allow for optimal reprogramming efficiency. For wild-type cells, 100-300 cells/mm^2 (20-60K per well of a 24 w dish) routinely generated high numbers of iPS cell clones. Besides for wild-type, 20-60K per well of a 24 w dish was also optimal for the Bard1 point mutants, Brca1^tr/+ and all combination mutations with Smarcal1 or 53bp1; Brca1^tr/tr, 53bp1^−/− as well as the heterozygous or homozygous Smarcal1 and 53bp1 single mutants. […] The remaining Brca1^tr/tr53BP1^+/− genotype was re-plated at 450 cells/mm^2 (90K/well of a 24 w dish). These seeding densities were later used to calculate the reprogramming efficiency of each genotype. The OSKM reprogramming factors were induced with 1 ug/ml doxycycline (Sigma #D9891) in mouse embryonic stem (mES) cell media, consisting of Knockout DMEM (Life Technologies #10829-018), supplemented with 15% Knockout Serum Replacement (Life Technologies #10828-028), Glutamax (Thermo Fisher Scientific #35050079), MEM NEAA (Life Technologies #11140050), PenStrep (Thermo Fisher Scientific 15140163), 2-mercaptoetahnol (Life Technologies #21985-023) and […] LIF (eBioscience #34-8521-82). Transduction efficiency was determined on reprogramming day 3 by staining for Sox2 (Stemgent #09-0024) and used in the calculation of reprograming efficiency. The reprogramming experiments with drug treatment used aphidicolin (Sigma #A0781) at 0.2 uM, Ttpotecan (Sigma #T2705) at 10 nM or the DNA PK inhibitor NU7026 (Tocris #2828) at 5 uM for 8 days during reprogramming.
Alternatively, for the induction of two-ended DSBs, cells were subjected to a single dose of 6 Gy IR 1 day post doxycycline-mediated OSKM factor induction. Cells were fixed on reprogramming day 18-20 and stained for alkaline phosphatase with the Vector Red detection kit (Vector Laboratories #SK-5100). Reprogramming efficiency was determined by considering the number of AP-positive colonies per number of infected cells, determined by Sox2 staining at the optimal plating density for each genotype. The sensitivity score in the experiments with aphidicolin, topotecan and IR was calculated as follows: the reprogramming efficiency of wild-type treated cells was determined as described above and normalized to the reprogramming efficiency of wild type untreated cells. The same procedure was applied to each mutant genotype. The sensitivity score was obtained by calculating the ratio of treated wild type (normalized to untreated wild type) to treated mutant (normalized to untreated mutant). A large score corresponds to high sensitivity.

[2] = test system: wild-type uninfected MEFs; assay: 53bp1 foci immunofluorescence in uninfected fibroblasts treated with aphidicolin; assay type: cell-based, mouse; conditions: 0.2 uM aphidicolin for 3 days
Experimental: Detection of […], phospho RPA(S33) and 53bp1 was performed on reprogramming D5 with the following antibodies: Phospho-RPA2Ser33 (Invitrogen #PA5-39809); Anti-phosphoHistone H2A.X-Ser139 (Millipore #05-636); and 53BP1 Antibody H-300 (Santa Cruz #22760). For detection of Rad51, iPS cell lines were irradiated with 10 Gy and stained with Rad51 (Ab-1) Rabbit pAb (Millipore #PC130) 1.5 h post IR.
The DNA damage observed in the form of phosphorylated H2AX during reprogramming can be the result of global epigenetic remodeling (Hernandez et al., 2018), oxidative stress (Ji et al., 2014) or elevated replication stress (Ruiz et al., 2015). To determine the specific type of DNA damage which is most limiting to iPS cell generation, mouse embryonic fibroblasts (MEFs) were treated during reprogramming with the DNA polymerase inhibitor aphidicolin, which induces one-ended double strand breaks (DSBs), processed by HDR (Rothkamm et al., 2003). To test the effect of aphidicolin on primary cells, uninfected wild type fibroblasts were incubated with 0.2 uM aphidicolin for 3 days and noted an increase in the numbers of 53bp1 foci (FIG. 4B).

efficiency of reprogramming ([1]; wild type MEFs, 5 uM DNA PK inhibitor for 8 days during reprogramming): no effect
Compound: O=c1cc(N2CCOCC2)oc2c1ccc1ccccc12 [DNA PK inhibitor, NU7026]

Compound: C[C@@]1(CO)[C@H](O)CC[C@@]2(C)[C@H]1CC[C@H]1C[C@@H]3C[C@@]12CC[C@]3(O)CO [aphidicolin]
numbers of 53bp1 foci [2]: increase
sensitivity of reprogramming ([1]; 53bp1^-/- mutants, 0.2 uM aphidicolin for 8 days during reprogramming): less sensitive
reprogramming efficiency compared to the Brca1^tr/tr genotype ([1]; Brca1^tr/tr53bp1^-/- cells, 0.2 uM aphidicolin for 8 days during reprogramming): improvement of reprogramming efficiency
sensitivity of reprogramming (colony numbers relative to wild-type) ([1]; Brca1^tr/tr cells, 0.2 uM aphidicolin for 8 days during reprogramming): pronounced sensitivity
reprogramming efficiency ([1]; wild type cells, 0.2 uM aphidicolin for 8 days during reprogramming): reduced the efficiency of the process

sensitivity of reprogramming ([1]; 53bp1 null cells, 10 nM topotecan for 8 days during reprogramming): reduced sensitivity
sensitivity of reprogramming ([1]; Brca1^tr/tr53bp1^-/- cells, 10 nM topotecan for 8 days during reprogramming): mild sensitivity
reprogramming efficiency ([1]; Brca1^tr/tr cells, 10 nM topotecan for 8 days during reprogramming): greatly reduced efficiency
sensitivity of reprogramming ([1]; wild-type cells, 10 nM topotecan for 8 days during reprogramming): barely sensitive
Compound: CC[C@@]1(O)C(=O)OCc2c1cc1n(c2=O)Cc2cc3c(CN(C)C)c(O)ccc3nc2-1 [topotecan]
